In patent US20090155784A1, “ASSESSMENT OF ASTHMA AND ALLERGEN-DEPENDENT GENE EXPRESSION” (Wyeth, priority 2007, published 2009):

Tested on: PBMCs from healthy volunteers
Test: HG-U133A baseline gene expression in PBMCs of healthy volunteers (HV), cPLA2 inhibitor in the absence of allergen (no AG)
Assay type: cell-based, human
Text: PBMCs were stimulated in vitro with a cocktail containing 4 different allergens from house dust mite, ragweed and cat. Recombinant allergens, Der p1, Der f2, Fel d1 (Indoor Biotech, Charlottesville, Va.) and natural ragweed allergen (Allergy Lab, Seattle, Wash.) were selected and screened for endotoxin contamination (LAL Endotoxin Test, Catalog #HIT302, sensitivity, 0.0001 Eu/ml, Cell Sciences, Canton, Mass.). The sensitivity of the subjects was unknown but the allergens were chosen based on the estimate that 80% of allergic individuals are believed to react to one or more of these allergens. Culture medium contained RPMI-1640 (Sigma) with 10% heat inactivated FCS (Sigma St. Louis, Mo.) and 100 unit/mL Penicillin and […] Streptomycin and 0.292 mg/mL Glutamine (GIBCO RL Invitrogen, Carlsbad, Calif.). The final allergen cocktail concentrations in culture medium were: Der p1 and Der f2 (dust mite), 1 mg/ml; Fel d1 (cat), 1.25 mg/ml; ragweed, 125 mg/ml. The total level of endotoxin contamination in culture medium was 0.057 Eu/ml. The cPLA2 inhibitor 4-{3-[1-benzhydryl-5-chloro-2-(2-{[(2,6-dimethylbenzyl)sulfonyl]amino}ethyl)-1H-indol-3-yl]propyl}benzoic acid was used at a concentration of 0.3 μM/ml. Zileuton, a 5-lipoxygenase inhibitor, was added at a concentration of 5 μM. The inhibitory activity of both the cPLA2 inhibitor and Zileuton samples were verified in a human whole blood assay. After 6 days in culture approximately 200 μL of supernatant was removed using an 8-channel pipettor without disturbing the cell pellet and placed into a collection plate for cytokine ELISA assays. To the remaining cell pellet 100 μL of RLT lysis buffer containing 1% beta-mercaptoethanol was added and snap frozen for RNA purification.
RNA was purified using QIA shredders and Rneasy mini kits (Qiagen, Valencia, Calif.). PBMC pellets frozen in RLT lysis buffer containing 1% β-mercaptoethanol were thawed and processed for total RNA isolation using the QIA shredder and RNeasy mini kit. A phenol:chloroform extraction was then performed, and the RNA was repurified using the RNeasy mini kit reagents. Eluted RNA was quantified using a Spectramax96 well plate UV reader (Molecular Devices, Sunnyvale, Calif., USA) monitoring A260/280 OD values. The quality of each RNA sample was assessed by capillary electrophoresis alongside an RNA molecular weight ladder on the Agilent 2100 bioanalyzer (Agilent Technologies, Palo Alto, Calif., USA). RNA samples were assigned quality values of intact (distinct 18S and 28S bands); partially degraded (discernible 18S and 28S bands with presence of low molecular weight bands) or completely degraded (no discernible 18S and 28S bands).
Labeled targets for oligonucleotide arrays were prepared using a modification of the procedure described by Lockhart et al. (Lockhart (1996) Nat. Biotechnol. 14:1675-80). Labeled targets were hybridized to the HG-U133A Affymetrix GeneChip Array as described in the Affymetrix technical manual. Eleven biotinylated control transcripts ranging in abundance from 3 parts per million (ppm) to 100 ppm were spiked into each sample to function as a standard curve (Hill (2001) Genome Biol. 2:RESEARCH0055). GeneChip MAS 5.0 software was used to evaluate the hybridization intensity, compute the signal value for each probe set and make an absent/present call.
GeneChips were required to pass the pre-set quality control criteria that the RNA quality metric required a 5′:3′ ratio. Two asthma subjects were excluded from the study due to failure to meet the RNA quality metric and 2 GeneChips from the group treated with cPLA2a inhibitor were excluded for the same reason. The signal value for each probe set was converted into a frequency value representative of the number of transcripts present in 10^6 transcripts by reference to the standard curve (Hill (2001) Genome Biol. 2:RESEARCH0055). […]

SMILES: Cc1cccc(C)c1CS(=O)(=O)NCCc1c(CCCc2ccc(C(=O)O)cc2)c2cc(Cl)ccc2n1C(c1ccccc1)c1ccccc1 [cPLA2 inhibitor, 4-{3-[1-benzhydryl-5-chloro-2-(2-{[(2,6-dimethylbenzyl)sulfonyl]amino}ethyl)-1H-indol-3-yl]propyl}benzoic acid]
- Fold Change cPLA2 inhibitor vs. no AG HV (probeset 208723_at, gene USP11): 1.191 fold
- Fold Change cPLA2 inhibitor vs. no AG HV (probeset 208735_s_at, gene CTDSP2): 1.214 fold
- Fold Change cPLA2 inhibitor vs. no AG HV (probeset 208881_x_at, gene IDI1): 1.288 fold
- Fold Change cPLA2 inhibitor vs. no AG HV (probeset 208962_s_at, gene UNK_BE540552): 1.667 fold
- Fold Change cPLA2 inhibitor vs. no AG HV (probeset 208963_x_at, gene FADS1): 1.668 fold
- Fold Change cPLA2 inhibitor vs. no AG HV (probeset 208992_s_at, gene STAT3): 1.161 fold
- Fold Change cPLA2 inhibitor vs. no AG HV (probeset 209417_s_at, gene IFI35): 1.367 fold
- Fold Change cPLA2 inhibitor vs. no AG HV (probeset 209949_at, gene NCF2): 1.229 fold
- Fold Change cPLA2 inhibitor vs. no AG HV (probeset 209969_s_at, gene STAT1): 1.315 fold
- Fold Change cPLA2 inhibitor vs. no AG HV (probeset 210029_at, gene INDO): 2.207 fold
- Fold Change cPLA2 inhibitor vs. no AG HV (probeset 210146_x_at, gene LILRB2): 1.473 fold
- Fold Change cPLA2 inhibitor vs. no AG HV (probeset 210176_at, gene TLR1): 1.302 fold
- Fold Change cPLA2 inhibitor vs. no AG HV (probeset 210495_x_at, gene FN1): −16.2745 fold
- Fold Change cPLA2 inhibitor vs. no AG HV (probeset 210524_x_at, gene UNK_AF078844): 1.984 fold
- Fold Change cPLA2 inhibitor vs. no AG HV (probeset 210754_s_at, gene LYN): 1.482 fold
- Fold Change cPLA2 inhibitor vs. no AG HV (probeset 210784_x_at, gene LILRB3): 1.348 fold
- Fold Change cPLA2 inhibitor vs. no AG HV (probeset 210962_s_at, gene AKAP9): −1.163 fold
- Fold Change cPLA2 inhibitor vs. no AG HV (probeset 211133_x_at, gene LILRB3): 1.349 fold
- Fold Change cPLA2 inhibitor vs. no AG HV (probeset 211135_x_at, gene LILRB3): 1.416 fold
- Fold Change cPLA2 inhibitor vs. no AG HV (probeset 211456_x_at, gene UNK_AF333388): 2.494 fold
- Fold Change cPLA2 inhibitor vs. no AG HV (probeset 211661_x_at, gene PTAFR): 1.264 fold
- Fold Change cPLA2 inhibitor vs. no AG HV (probeset 211719_x_at, gene FN1): −18.8559 fold
- Fold Change cPLA2 inhibitor vs. no AG HV (probeset 212066_s_at, gene USP34): −1.173 fold
- Fold Change cPLA2 inhibitor vs. no AG HV (probeset 212185_x_at, gene MT2A): 2.359 fold
- Fold Change cPLA2 inhibitor vs. no AG HV (probeset 212274_at, gene UNK_AV705559): 1.2259 fold
- Fold Change cPLA2 inhibitor vs. no AG HV (probeset 212318_at, gene TNPO3): 1.195 fold
- Fold Change cPLA2 inhibitor vs. no AG HV (probeset 212464_s_at, gene FN1): −16.6219 fold
- Fold Change cPLA2 inhibitor vs. no AG HV (probeset 212859_x_at, gene MT2A): 2.114 fold
- Fold Change cPLA2 inhibitor vs. no AG HV (probeset 212907_at, gene SLC30A1): 1.527 fold
- Fold Change cPLA2 inhibitor vs. no AG HV (probeset 213571_s_at, gene EIF4EL3): 1.18 fold
- Fold Change cPLA2 inhibitor vs. no AG HV (probeset 213629_x_at, gene MT1F): 1.953 fold
- Fold Change cPLA2 inhibitor vs. no AG HV (probeset 213716_s_at, gene SECTM1): 1.603 fold
- Fold Change cPLA2 inhibitor vs. no AG HV (probeset 214038_at, gene UNK_AI984980): 2.289 fold
- Fold Change cPLA2 inhibitor vs. no AG HV (probeset 214179_s_at, gene NFE2L1): 1.302 fold
- Fold Change cPLA2 inhibitor vs. no AG HV (probeset 214730_s_at, gene GLG1): 1.22 fold
- Fold Change cPLA2 inhibitor vs. no AG HV (probeset 215051_x_at, gene AIF1): 1.464 fold
- Fold Change cPLA2 inhibitor vs. no AG HV (probeset 215223_s_at, gene SOD2): 1.584 fold
- Fold Change cPLA2 inhibitor vs. no AG HV (probeset 216336_x_at, gene UNK_AL031602): 1.748 fold
- Fold Change cPLA2 inhibitor vs. no AG HV (probeset 216442_x_at, gene FN1): −15.6848 fold
- Fold Change cPLA2 inhibitor vs. no AG HV (probeset 216841_s_at, gene SOD2): 1.463 fold
- Fold Change cPLA2 inhibitor vs. no AG HV (probeset 217165_x_at, gene MT1F): 2.496 fold
- Fold Change cPLA2 inhibitor vs. no AG HV (probeset 217965_s_at, gene HCNGP): 1.185 fold
- Fold Change cPLA2 inhibitor vs. no AG HV (probeset 218154_at, gene FLJ12150): 1.267 fold
- Fold Change cPLA2 inhibitor vs. no AG HV (probeset 218472_s_at, gene PELO): 1.163 fold
- Fold Change cPLA2 inhibitor vs. no AG HV (probeset 219159_s_at, gene SLAMF7): 1.736 fold
- Fold Change cPLA2 inhibitor vs. no AG HV (probeset 219519_s_at, gene SN): 2.441 fold
- Fold Change cPLA2 inhibitor vs. no AG HV (probeset 219788_at, gene PILRA): 1.371 fold
- Fold Change cPLA2 inhibitor vs. no AG HV (probeset 221165_s_at, gene IL22): 1.835 fold
- Fold Change cPLA2 inhibitor vs. no AG HV (probeset 221558_s_at, gene LEF1): −1.137 fold
- Fold Change cPLA2 inhibitor vs. no AG HV (probeset 221581_s_at, gene WBSCR5): 1.343 fold
- Fold Change cPLA2 inhibitor vs. no AG HV (probeset 222218_s_at, gene PILRA): 1.292 fold
